Reference: patent US20060135494A1, “Methods of treating injuries of the nervous system associated with hemorrhage” (priority 2002, published 2006)

What was measured:
collagenase-induced ICH = assay: Neurological testing: limb placement / step initiation after ICH; type: in vivo, rat
Excerpt: All animals received humane care in compliance with the institute's guidelines as outlined in “Guide for the Care and Use of Laboratory Animals” prepared by the National Academy of Sciences and published by the National Institutes of Health (NIH publication no. 86-23, revised 1985). Female Sprague-Dawley rats (250-300 grams (g); Harlan Sprague-Dawley, Inc., Indianapolis, Ind.) were anesthesized with an intramuscular injection of a mixture of ketamine and xylazine and set in supine in a Kopf headholder. The right carotid artery, external and internal branches, was exposed and the distal end of the external carotid freed and retracted to line with the internal carotid. A PE-10 polyethylene tube (Becton-Dickinson, Sparks, Md.) was then introduced from the external into the internal carotid artery, and the former was ligated to hold the tube. […]
The animals were tested for rotational behavior in response to apomorphine 2 days after surgery. Apomorphine (1 mg/kg bw; Sigma Chemical Co.) was injected subcutaneously, and rotations were determined by a computer-controlled Columbus Instruments Videomex-V system (Columbus, Ohio). […] Step initiation was assessed at 2 days after ICH by independently analyzing stepping behavior in the left and right forelimbs. […] The number of steps initiated by each limb was counted during a 1-minute period.

[1] = system: phosphorylated Akt-1 Ser473, phosphorylated Bad Ser-136; assay: Immunoblotting of phosphorylated Akt-1 and phosphorylated Bad in ICH rat brain; type: in vivo
Excerpt: All animals received humane care in compliance with the institute's guidelines as outlined in “Guide for the Care and Use of Laboratory Animals” prepared by the National Academy of Sciences and published by the National Institutes of Health (NIH publication no. 86-23, revised 1985). Female Sprague-Dawley rats (250-300 grams (g); Harlan Sprague-Dawley, Inc., Indianapolis, Ind.) were anesthesized with an intramuscular injection of a mixture of ketamine and xylazine and set in supine in a Kopf headholder. The right carotid artery, external and internal branches, was exposed and the distal end of the external carotid freed and retracted to line with the internal carotid. A PE-10 polyethylene tube (Becton-Dickinson, Sparks, Md.) was then introduced from the external into the internal carotid artery, and the former was ligated to hold the tube. TUDCA (Calbiochem-Novabiochem Corp., San Diego, Calif.) was dissolved in phosphate buffer, pH 7.4 at 400 milligrams per milliliter (mg/ml). Saline or TUDCA solution (1 milliliter per kilogram body weight (ml/kg bw)) were injected directly into the internal carotid artery, within 5 minutes. […]
Bcl-2 family, NF-κB, IκB, p-Akt, and p-Bad protein levels were determined from total protein homogenates separated by 12% sodium dodecyl sulfate polyacrylamide gel electrophoresis (SDS-PAGE). […]

[2] = system: traumatic brain injury (blunt head trauma); assay: TUNEL-positive cells in blunt head trauma rat model; type: in vivo
Excerpt: UDCA and TUDCA are nontoxic, endogenously produced, bile acids that act both in vitro and in vivo as potent anti-apoptotic agents. In addition to their effects at preventing mitochondrial dysfunction by inhibiting membrane depolarization and channel formation (Rodrigues et al., J Clin Invest 1998;101:2790-2799 and Rodrigues et al., Cell Death Differ 1999;6:842-854), these molecules may also play key regulatory roles in signal transduction pathways by modulating cytosolic calcium levels and in gene expression by regulating transcription (Guicciari et al., Hepatology 2002;35:971-973). […] Administration of TUDCA almost completely abolished the appearance of TUNEL-positive cells, the activation of caspase-3-like proteases, and the histological damage of the peri-ICH region. These findings are consistent with the inhibition of neuronal apoptosis by TUDCA. Further, most neurons can be rescued by TUDCA up to 3 hours, and some up to 6 hours, from the onset of the hemorrhage, consistent with a delayed activation of neuronal cell death. Thus, at least in this model, many cells remain viable for several hours and can be recovered by an anti-apoptotic agent, provided therapy is initiated within this time window. Finally, TUDCA was also markedly effective at reducing apoptosis after brain injury in a blunt head trauma rat model. […]

C[C@H](CCC(=O)NCCS(=O)(=O)O)[C@H]1CC[C@H]2[C@@H]3[C@@H](O)C[C@@H]4C[C@H](O)CC[C@]4(C)[C@H]3CC[C@]12C [TUDCA, tauroursodeoxycholic acid]
improved motor activity in test of limb placement (collagenase-induced ICH; time-course experiment of TUDCA administration, 2 days after ICH): 25-40% | steps initiated by left forelimb in 1-minute period versus vehicle (collagenase-induced ICH; unilateral striatal hemorrhage, 2 days): significantly more steps | levels of phosphorylated Bad compared with untreated sham controls ([1]; brain of rats receiving TUDCA): ~2 fold | expression of phosphorylated form of Akt-1 ([1]; hemisphere ipsilateral to ICH, TUDCA 10-200 mg/kg bw): largely restored | reduction of apoptosis ([2]; 24-h pre-injury treatment plus treatments at head trauma and 24 h later): more than 50% | number of TUNEL-positive cells per high power field ([2]; 24-h pre-injury treatment plus two post-injury treatments, vehicle approximately 27): 12
